Consider 15 molecules from US5130450A, “Platinum complexes” (Nippon Kayaku Kabushiki Kaisha, priority 1990, dated 1992).

For series [1], the system named is SW-1116 cells. Description: Growth inhibition of SW-1116 cells derived from colon cancer, 96 h, methylene blue staining. It counts as cell-based. The method, then: (§1) After 24-hour incubation under the conditions of 37° C. and 5% CO2, 10 μl of the novel fat-soluble platinum complex was added in various concentrations and the PC-3 cells and SW-1116 cells were further cultured for 72 hours and 96 hours, respectively. Thereafter, the culture was drawn off from each well by using an aspirator, fixed with MeOH, then added with a 0.05% methylene blue/10 mM tris-(hydroxymethyl)aminomethanehydrochloric acid buffer solution (pH 8.5) at a rate of 100 μl/well and stained at room temperature for 30 minutes. Thereafter, each well was cleared of the staining solution by using an aspirator and washed three times with pure water. Then 3% hydrochloric acid solution was added at a rate of 200 μl/well, and after sealing, the culture was left at room temperature for about 24 hours and the pigment was extracted from the cells. The absorbance (A660) of each well at 660 nm was measured by a dynamic microplate reader, and the growth inhibition rate (%) at each concentration was calculated from the following equation. […] [formula]

Series [2] concerns PC-3 cells. The experiment in a line: Growth inhibition of PC-3 cells derived from lung cancer, 72 h, methylene blue staining. It counts as cell-based. The procedure: as §1
The conditions of series [3]: in words, prior art; cited from earlier work.
The conditions of series [4]: in words, clinical use; cited from earlier work.

Turning to `CC(C)(CO)C([O-])C(=O)[O-].C[C@@H](CN)CCN.[Pt+2]` (stereo in doubt) [compound No. 21, cis-[2-(2-Hydroxy-1,1-dimethylethyl)-glycolato-O,O']-(R)-1,4-diamino-2-methylbutane platinum (II)], the Solubility in water was more than 100 mg/mL. The “IC50 SW-1116” value in series [1] is 0.37 µg/mL. In series [2], the “IC50 PC-3” value stood at 0.53 µg/mL.
In the case of `CC(C)(CO)C(O)C(=O)[O-].CC(C)(CO)C(O)C(=O)[O-].CC(CN)CCN.[Pt+2]` [compound No. 19, cis-Bis[(R)-2,4-dihydroxy-3,3-dimethylbutyrato]-(R)-1,4-diamino-2-methylbutane platinum (II)], in series [1], the “IC50 SW-1116” value worked out at 0.36 µg/mL. Also, the “IC50 PC-3” value in series [2] came to 0.40 µg/mL.
On to `N.N.[Cl][Pt][Cl]` [cis-Platin, cis-dichlorodiammine platinum (II), reference compound], for which the “IC50 SW-1116” value in series [1] is 0.36 µg/mL. Further, the antitumor effect entry in series [3] is given as “very excellent antitumor effect”. In addition, the side effects result in series [4] is “strong side effects such as renal toxicity and vomitting toxicity”. In addition, the “IC50 PC-3” value in series [2] amounted to 0.40 µg/mL.
In the case of `CC(C)(CO)C([O-])C(=O)[O-].NC1CCCCC1N.[Pt+2]` (stereo not drawn) [compound No. 18, cis-[2-(2-Hydroxy-1,1-dimethylethyl)-glycolato-O,O']-trans-1,2-diaminocyclohexane platinum (II)], the “IC50 SW-1116” value in series [1] came to 0.25 µg/mL. The “IC50 PC-3” value in series [2] came out at 2.03 µg/mL.
In turn, `CC(C)(CO)C(=O)[O-].CC(C)(CO)C(=O)[O-].C[C@@H](CN)CCN.[Pt+2]` (stereo in doubt) [compound No. 20, cis-Bis(3-hydroxy-2,2-dimethylpropionato)(R)-1,4-diamino-2-methylbutane platinum (II)] had a Solubility in water of more than 20 mg/mL. In addition, the “IC50 SW-1116” value in series [1] was found to be 0.36 µg/mL. The “IC50 PC-3” value in series [2] amounted to 0.35 µg/mL.
For “cis-Bis[(R)-2,4-dihydroxy-3,3-dimethylbutyrato]diammine platinum (II) [compound No. 1]”, the Solubility in water is more than 100 mg/mL.
For `CC(O)(CCO)CC(=O)[O-].CC(O)(CCO)CC(=O)[O-].N.N.[Pt+2]` (stereo not drawn) [compound No. 12, cis-Bis(3,5-dihydroxy-3-methylvalerato)-diammine platinum (II)], the Solubility in water was more than 100 mg/mL.
As to `CC(C)(CO)[C@@H](O)C(=O)NCCC(=O)[O-].CC(C)(CO)[C@@H](O)C(=O)NCCC(=O)[O-].N[C@@H]1CCCC[C@H]1N.[Pt+2]` (stereo in doubt) [compound No. 17, cis-Bis[(R)-pantothenato]-trans-(R,R)-1,2-diaminocyclohexane platinum (II)], in series [1], the “IC50 SW-1116” value came to 0.082 µg/mL. Also, in series [2], the “IC50 PC-3” value turned out to be 0.60 µg/mL.
The molecule `CC(O)(CCO)CC(=O)[O-].CC(O)(CCO)CC(=O)[O-].NCC1(N)CCCCC1.[Pt+2]` (stereo not drawn) [compound No. 15, cis-Bis(3,5-dihydroxy-3-methylvalerato)-1-amino-1-aminomethylcyclohexane platinum (II)] showed a Solubility in water of more than 100 mg/mL. Further, the “IC50 SW-1116” value in series [1] came to 0.14 µg/mL. Moreover, in series [2], the “IC50 PC-3” value came to 0.80 µg/mL.
For `CC(O)(CCO)CC(=O)[O-].CC(O)(CCO)CC(=O)[O-].N[C@@H]1CCCC[C@H]1N.[Pt+2]` (relative stereo) [compound No. 13, Cis-Bis(3,5-dihydroxy-3-methylvalerato)-trans-1,2-diaminocyclohexane platinum (II)], the “IC50 SW-1116” value in series [1] worked out at 0.085 µg/mL. Also, the “IC50 PC-3” value in series [2] turned out to be 0.76 µg/mL.
Taken in the same sequence, the figures for `CC(C)(O)C(=O)[O-].CC(C)(O)C(=O)[O-].N[C@@H]1CCCC[C@H]1N.[Pt+2]` (relative stereo) [compound No. 8, cis-Bis(2-hydroxy-2-methylpropionato)-trans-1,2-diaminocyclohexane platinum (II)] were 0.21 µg/mL and 1.57 µg/mL.
In the case of `CC(C)(CO)[C@@H](O)C(=O)[O-].CC(C)(CO)[C@@H](O)C(=O)[O-].NCC1(N)CCCCC1.[Pt+2]` [compound No. 4, cis-Bis[(R)-2,4-dihydroxy-3,3-dimethylbutyrato]-1-amino-1-aminomethylcyclohexane platinum (II)], the Solubility in water was more than 100 mg/mL. Also, in series [1], the “IC50 SW-1116” value was determined as 0.37 µg/mL. Besides, in series [2], the “IC50 PC-3” value is 0.73 µg/mL.
Take `CC(C)(CO)C(O)C(=O)[O-].CC(C)(CO)C(O)C(=O)[O-].NC1CCCCC1N.[Pt+2]` [compound No. 9, cis-Bis[(S)-2,4-dihydroxy-3,3-dimethylbutyrato]-trans-(R,R)-1,2-diaminocyclohexane platinum (II)]: the “IC50 SW-1116” value in series [1] worked out at 0.057 µg/mL. Also, the “IC50 PC-3” value in series [2] was found to be 0.45 µg/mL.
“cis-Bis[(R)-2,4-dihydroxy-3,3-dimethylbutyrato]-trans-(R,R)-1,2-diaminocyclohexane platinum (II) [compound No. 5]”: the Solubility in water is more than 100 mg/mL. The “IC50 SW-1116” value in series [1] worked out at 0.060 µg/mL. Besides, the “IC50 PC-3” value in series [2] turned out to be 0.60 µg/mL.
As for `CC(C)(CO)C(=O)[O-].CC(C)(CO)C(=O)[O-].N[C@@H]1CCCC[C@H]1N.[Pt+2]` (relative stereo) [compound No. 10, cis-Bis(3-hydroxy-2,2-dimethylpropionato)-trans-1,2-diaminocyclohexane platinum (II)], the “IC50 SW-1116” value in series [1] was found to be 0.065 µg/mL. Also, the “IC50 PC-3” value in series [2] stood at 0.50 µg/mL.
